According to PubChem BioAssay AID602210 (Sanford-Burnham Center for Chemical Genomics, 2012):
Activity calls are given as the source filed them. The rule behind the calls is not given here.

Assay: H9c2 cardiomyoblast viability modulators under 2-DG – cell-based, ATPlite luminescence, rat, set 2, myocardial damage modulator project, dose response (AID 602210)
Conditions: H9c2 rat cardiomyoblasts, 2-deoxyglucose-induced death, 2 h
For `Clc1ccccc1-c1nc(N/N=C/c2cccnc2)c2ccccc2n1`, the IC50 was 18.6 µM (inactive). With `COc1ccc(-c2csc(NC(=O)c3ccc(OCC(=O)N4CCOCC4)c(OC)c3)n2)cc1OC` the IC50 was 10.9 µM (inactive). For `O=C(CN1CCN(c2ccccn2)CC1)Nc1ccc([N+](=O)[O-])cc1C(=O)Nc1ccccc1F`, the IC50 was 12.8 µM (inactive). With `O=C(NCc1ccco1)c1cc(-c2cccnc2)nc2ccc(Cl)cc12` the IC50 was > 79 µM (inactive). For `CC(=O)Nc1ccc(C(=O)N/N=C/c2ccccc2OC(=O)c2ccc(Cl)cc2)cc1`, the IC50 was 14.7 µM (inactive). With `O=C(Nc1cccc(NC(=O)c2ccc([N+](=O)[O-])o2)c1)c1ccco1` the IC50 was 3.85 µM. For `CC(C(=O)NC1CCCC1)N(C(=O)Cn1nnc(-c2ccc(F)cc2)n1)c1ccccc1F` (centres undefined), the IC50 was 11.3 µM (inactive). With `COCCn1cnc2c(c1=O)c1nc3ccccc3nc1n2/N=C/c1cccc(OC)c1` the IC50 was > 79 µM (inactive). In the case of `CCOC(=O)C1=C(COC(=O)c2cc(OC)c(OC)c(OC)c2)NC(=O)NC1C` (centres undefined), the IC50 is reported as 42.8 µM (inactive). With `CCN(CC)C(=O)c1ccc(-c2nnc(Nc3ccc(O)cc3)c3ccccc23)cc1` the IC50 was 44.2 µM (inactive). With `CCOC(=O)C1=C(C)NC(C)=C(C(=O)OCC)C1C(=O)OCC(=O)NC(C)C` the IC50 was 25.1 µM (inactive). In the case of `C[C@H](NC(=O)c1nc[nH]c1C(=O)NCC(=O)OCc1ccccc1)c1ccccc1`, the IC50 is reported as 14.3 µM (inactive). For `CCOC(=O)c1cc2c(=O)n3ccccc3nc2n(Cc2ccco2)c1=NC(=O)c1cccnc1`, the IC50 was 23 µM (inactive). With `COc1cccc(-c2cnc3c(NC=O)cc(-c4ccc(O)c(OC)c4)cn23)c1` the IC50 was 8.51 µM. `O=C(Nc1ccccc1)c1nc[nH]c1C(=O)NCCCCCCNC(=O)c1[nH]cnc1C(=O)Nc1ccccc1` showed an IC50 of 4.44 µM. With `CNC(=O)c1cccc(NC(=O)c2cc(-c3ccccc3)nc3c2cnn3C(C)C)c1` the IC50 was 14.3 µM (inactive). In the case of `COc1ccc(/C=N/NC(=O)c2ccc(COc3cccc4cccnc34)cc2)cc1OC`, the IC50 is reported as 12.1 µM (inactive). With `Cc1cccc(NC(=O)c2oc3ccc(S(=O)(=O)N4CCOCC4)cc3c2C)c1C` the IC50 was 11 µM (inactive). In the case of `CCOC(=O)C1CCN(c2cc3c(cc2NC(=O)c2ccc(OC)c(OC)c2)n(C)c(=O)n3C)CC1`, the IC50 is reported as 4.59 µM. In the case of `CCc1nnc(NC(=O)CCC(=O)N2CCN(C3c4ccccc4-c4ccccc43)CC2)s1`, the IC50 is reported as 29.1 µM (inactive). For `CCOc1cccc(Nc2cc3n(c(=O)n2)CCc2cc(OC)c(OC)cc2-3)c1`, the IC50 was 28 µM (inactive). With `O=C(CN1C(=O)C2C3C=CC(C3)C2C1=O)Nc1nc(-c2ccccn2)cs1` (centres undefined) the IC50 was 24.7 µM (inactive). `O=C(C(=O)N(Cc1ccccc1)Cc1ccccc1)c1c(-c2ccccc2)[nH]c2ccccc12` gave an IC50 of 1.88 µM. With `O=c1oc2ccc3ccccc3c2cc1-c1nnc(-c2ccccc2)o1` the IC50 was > 79 µM (inactive). For `CC(=O)c1ccc(-c2ccc(C(=O)Nc3nc(-c4ccccn4)cs3)o2)cc1`, the IC50 was 5.91 µM. `CCOC(=O)C1=C(C)NC(C)=C(C(=O)OCC)C1C(=O)OCC(=O)NC1CCCCC1` gave an IC50 of 7.05 µM. For `CCOc1ccccc1Nc1nnc(SCc2nnc(-c3cc(OC)c(OC)c(OC)c3)o2)s1`, the IC50 was 12.8 µM (inactive). With `O=C(CN(c1ccc2c(c1)OCCO2)S(=O)(=O)c1ccccc1)Nc1ccc2c(c1)OCO2` the IC50 was 14.7 µM (inactive). In the case of `CCOc1cc(-c2cc(-c3ccc(N)cc3)nc(N)c2C#N)ccc1O`, the IC50 is reported as 11.8 µM (inactive). With `Cc1nnc2ccc(-c3cccc(NC(=O)c4ccc(Cl)nc4)c3)nn12` the IC50 was 45.9 µM (inactive). Compound `CCN(C[C@H]1N[C@@](CC)(C(=O)OC)[C@H]2C(=O)N(Cc3ccccc3)C(=O)[C@@H]12)C(=O)c1ccc(C(C)(C)C)cc1` has an IC50 of 3.95 µM. With `CC(=O)Nc1cccc(-c2cc(NC(C)=O)c3ncc(-c4cccc(C(C)=O)c4)n3c2)c1` the IC50 was 13.1 µM (inactive). In the case of `CCOC(=O)c1cccc(Nc2nc(-c3cccnc3)nc3ccccc23)c1`, the IC50 is reported as > 79 µM (inactive). `CCN(CC)S(=O)(=O)c1ccc(N2CCOCC2)c(NC(=O)c2cc(-c3ccccn3)nc3ccccc23)c1` showed an IC50 of 4.51 µM. With `COc1cc(-c2cc(NC=O)c3ncc(-c4ccc(C(C)=O)cc4)n3c2)cc(OC)c1OC` the IC50 was 6.7 µM. For `CCOc1cccc(-c2nn3c(-c4ccccn4)nnc3s2)c1`, the IC50 was 30.2 µM (inactive). With `O=C(Nc1ccc2c(c1)OCO2)c1cnn2c(C(F)(F)F)cc(-c3ccco3)nc12` the IC50 was > 79 µM (inactive). With `COc1ccc(OC)c(N(CC(=O)Nc2cccnc2)S(=O)(=O)c2ccc(OC)c(OC)c2)c1` the IC50 was 32.2 µM (inactive). Work on `O=C(c1cc(=O)[nH]c2ccccc12)N1CCN(S(=O)(=O)c2ccc(Cl)cc2)CC1` yielded an IC50 of 7.15 µM. For `COc1cc(NC(=O)c2cc([N+](=O)[O-])ccc2NC(=O)CN2CCN(c3ccccn3)CC2)cc(OC)c1`, the IC50 was > 79 µM (inactive). `CC1Cc2ccccc2N1C(=O)c1cc2c(=O)n3ccccc3nc2n1C` (centres undefined) showed an IC50 of 7.6 µM. For `COc1cccc(-c2cnc3c(NC=O)cc(-c4cc(OC)c(OC)c(OC)c4)cn23)c1`, the IC50 was 14.2 µM (inactive). For `Brc1cc2c(cc1/C=N/Nc1nc(N3CCCC3)nc(N3CCOCC3)n1)OCO2`, the IC50 was 16 µM (inactive). In the case of `COc1cc(-c2cc3nc(NCCOc4ccccc4)ccn3n2)cc(OC)c1OC`, the IC50 is reported as 15.8 µM (inactive). In the case of `CC(C)C1Nc2ccc(C(=O)N3CCN(c4ccccn4)CC3)cc2NC1=O` (centres undefined), the IC50 is reported as > 79 µM (inactive). `CCOC(=O)C1CCN(c2cc3c(cc2NC(=O)c2ccccc2)n(C)c(=O)n3C)CC1` showed an IC50 of 10 µM. With `COc1cccc(C(=O)Nc2cccc(-c3nnc(-c4ccco4)o3)c2)c1` the IC50 was 12.6 µM (inactive). For `CCOC(=O)C1=C(CC)Nc2ccccc2N=C1NC(=O)c1ccc(S(=O)(=O)N(C)C)cc1`, the IC50 was > 79 µM (inactive). In the case of `O=[N+]([O-])c1ccc(Nc2nc(N/N=C/c3cccc(F)c3)nc(N3CCCC3)n2)cc1`, the IC50 is reported as 10.2 µM (inactive). For `COc1ccc2cc3cc(C(=O)NCCc4ccc(OC)c(OC)c4)oc3nc2c1`, the IC50 was 10.4 µM (inactive). For `COc1ccc(C(=O)O/N=C(/c2ccccc2)c2ccncc2)cc1OC`, the IC50 was 15.9 µM (inactive). With `COc1ccc(COc2cc(-c3cccc(OC)c3)nc3ccc(NC(=O)c4cccnc4)cc23)cc1` the IC50 was 3.51 µM. In the case of `COc1cccc(C(=O)CSc2nnc(-c3cc(OC)c(OC)c(OC)c3)o2)c1`, the IC50 is reported as > 79 µM (inactive). For `COc1ccc(-c2nc(NC(=O)c3ccc(OCC(=O)N4CCOCC4)c(OC)c3)sc2C)cc1`, the IC50 was 23.7 µM (inactive). `Cc1ccc(NC(=O)c2nc[nH]c2C(=O)NCCCNC(=O)c2[nH]cnc2C(=O)Nc2ccc(C)cc2)cc1` gave an IC50 of 1.33 µM. With `CCC(=O)Oc1cccc(C(=O)Nc2ccc(-c3nnc(-c4ccco4)o3)cc2)c1` the IC50 was > 79 µM (inactive). With `CCOC(=O)C1CCCN(C(=O)CCC(=O)Nc2ccc3nc(N4CCOCC4)cc(C)c3c2)C1` (centres undefined) the IC50 was 38.8 µM (inactive). With `CC(=O)c1ccc(N2CCN(C(=O)C3CCCN(c4ncnc5c4nc4n5CCCCC4)C3)CC2)cc1` (centres undefined) the IC50 was 25.6 µM (inactive). In the case of `COc1cc(/C=C/C(=O)Nc2ccc3nc4n(c(=O)c3c2)CCCC4)cc(OC)c1OC`, the IC50 is reported as 20.6 µM (inactive). In the case of `CCOC(=O)c1ccc(-c2ccc3ncnc(NCc4csc(C)n4)c3c2)o1`, the IC50 is reported as > 79 µM (inactive). For `Cc1nn(-c2ccccc2)c(C)c1/C=N/NC(=O)c1cc(C(C)(C)C)[nH]n1`, the IC50 was 44.7 µM (inactive). Work on `NC(=O)c1nsc(C(=O)N(c2ccccc2)C(C(=O)NC2CCCC2)c2ccc3ncccc3c2)c1N` (centres undefined) yielded an IC50 of 6.5 µM. With `CCC(C)N1C(=O)S/C(=C/c2ccc3c(c2)n(C)c(=O)n3C)C1=O` (centres undefined) the IC50 was > 79 µM (inactive). Work on `NS(=O)(=O)c1ccc(CCNC(=O)c2ccc(C#CC3(O)CCCCC3)cc2)cc1` yielded an IC50 of 4.94 µM. With `Cc1ccc(-c2nnc3ccc(SCC(=O)N4CCCc5ccccc54)nn23)cc1` the IC50 was 14 µM (inactive). With `COc1cc(-c2cnc3c(NC=O)cc(-c4cccnc4)cn23)cc(OC)c1OC` the IC50 was 36.2 µM (inactive). In the case of `CCOc1ccc(S(=O)(=O)N(C)CCO)cc1-c1nc2c(C(C)(C)C)nn(C)c2c(=O)[nH]1`, the IC50 is reported as 33.2 µM (inactive). With `Cc1c(/C=N/NC(=O)c2ccc(O)cc2)c2ccccn2c1C(=O)c1ccc(F)cc1` the IC50 was > 79 µM (inactive). With `COc1cc(NC(=O)c2ccco2)c(OC)cc1NC(=O)c1cc(OC)c(OC)c(OC)c1` the IC50 was 7.97 µM. With `COc1ccc(OCC(O)Cn2c(Br)nc3c2c(=O)[nH]c(=O)n3C)cc1` (centres undefined) the IC50 was 38.1 µM (inactive). Compound `CN(C(=O)c1sc2nc(N3CCOCC3)c3c(c2c1N)CCCC3)c1ccccc1` has an IC50 of 9.97 µM. With `COc1cc2nc(Nc3ccc(F)cc3)nc(N)c2cc1OC` the IC50 was > 79 µM (inactive). In the case of `C[C@@H]1CN([C@@H](C)CO)C(=O)c2cc(NC(=O)Nc3ccccc3)ccc2O[C@H]1CN(C)C(=O)Nc1cccc2ccccc12`, the IC50 is reported as 15 µM (inactive). For `COc1ccc(CCNC(=O)c2cc3c(C)nccc3[nH]c2=O)cc1OC`, the IC50 was 20.7 µM (inactive). In the case of `COc1ccc(-c2cc(C(=O)N(C)Cc3ccccc3F)c3ccccc3n2)cc1OC`, the IC50 is reported as 13.5 µM (inactive). With `NC(=O)c1nsc(C(=O)N(c2ccccc2F)C(C(=O)NCc2ccc(F)cc2)c2ccc(O)cc2)c1N` (centres undefined) the IC50 was 3.13 µM. For `O=C(COc1cccc(NC(=O)c2cccc([N+](=O)[O-])c2)c1)c1ccc(F)cc1`, the IC50 was 11.2 µM (inactive). For `O=C(N/N=C/c1ccccn1)c1[nH]c2ccc([N+](=O)[O-])cc2c1-c1ccccc1`, the IC50 was > 79 µM (inactive). With `Cc1ccc(C=NNc2nc3c([nH]2)c(=O)n(C)c(=O)n3C)cc1` the IC50 was 11 µM (inactive). For `COc1ccc(-c2cc(C(=O)N(C)Cc3nc4ccccc4c(=O)[nH]3)c3ccccc3n2)cc1OC`, the IC50 was 10.3 µM (inactive). Work on `COc1ccc(C(C(=O)NCc2ccccc2)N(Cc2ccco2)C(=O)c2snc(C(N)=O)c2N)cc1` (centres undefined) yielded an IC50 of 6.17 µM. For `CCC(=O)Nc1cccc(-c2nnc(-c3cccc(NC(=O)CC)c3)o2)c1`, the IC50 was > 79 µM (inactive). For `Cc1ccc2nsnc2c1S(=O)(=O)N(Cc1ccco1)Cc1cc2cccc(C)c2[nH]c1=O`, the IC50 was > 79 µM (inactive). Work on `COc1ccc(OC)c(/C=N/NC(=O)c2cc3c(OC)c(OC)ccc3[nH]2)c1` yielded an IC50 of 8.62 µM. With `O=C(c1ccco1)N1CCN(C(=O)c2cc(-c3ccncc3)nc3ccc(Br)cc23)CC1` the IC50 was 25.8 µM (inactive). With `COc1cccc(-c2nn3c(-c4ccccn4)nnc3s2)c1` the IC50 was 16.1 µM (inactive). With `CCCCCCn1c(C)nc2c(c1=O)c1nc3ccccc3nc1n2/N=C/c1ccco1` the IC50 was 11.2 µM (inactive). For `COC(=O)c1cc2c(-c3ccccc3)cc3ccccn3c-2c1C(=O)OC`, the IC50 was 12.7 µM (inactive). For `O=C(CN1CCCCC1)Nc1nc(-c2ccc(F)c(F)c2)cs1`, the IC50 was > 79 µM (inactive).
